Measured values: ChEMBL document CHEMBL4732080, “Polypharmacological drug actions of recently FDA approved antibiotics” (Eur J Med Chem, 2021)
Converted amounts (≈) assume the structure as drawn.

How the values were obtained:
[1] = biological target: Albumin (Homo sapiens, UniProt P02768); experiment: Protein binding to human serum albumin; format: ADME, cell-free; settings: read-out: PB (converted)
[2] = Terminal half life in human; format: ADME; settings: read-out: beta t1/2 (converted)
[3] = Terminal half life in human at 10 mg/kg, administered as single dose measured over 2 hrs; format: ADME, organism-based; settings: in vivo, read-out: beta t1/2 (converted)
[4] = system: Staphylococcus aureus; experiment: Antibacterial activity against methicillin-resistant Staphylococcus aureus; format: functional

Sequence of Albumin (P02768 whole entry): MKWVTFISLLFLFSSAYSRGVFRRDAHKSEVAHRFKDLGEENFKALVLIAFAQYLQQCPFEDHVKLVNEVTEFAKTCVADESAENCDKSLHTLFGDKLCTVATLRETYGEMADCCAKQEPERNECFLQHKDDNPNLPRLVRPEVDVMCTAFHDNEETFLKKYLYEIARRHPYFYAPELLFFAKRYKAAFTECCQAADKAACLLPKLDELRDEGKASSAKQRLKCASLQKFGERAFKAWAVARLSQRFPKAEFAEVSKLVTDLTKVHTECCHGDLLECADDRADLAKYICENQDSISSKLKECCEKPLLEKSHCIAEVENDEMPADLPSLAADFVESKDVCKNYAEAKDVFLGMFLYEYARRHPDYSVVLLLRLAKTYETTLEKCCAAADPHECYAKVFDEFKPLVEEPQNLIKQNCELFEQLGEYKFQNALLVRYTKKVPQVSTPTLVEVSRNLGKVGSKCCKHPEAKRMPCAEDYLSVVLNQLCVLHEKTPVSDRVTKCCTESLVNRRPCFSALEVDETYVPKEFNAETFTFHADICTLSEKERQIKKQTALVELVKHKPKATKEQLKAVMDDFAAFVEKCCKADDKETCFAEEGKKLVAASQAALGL

| Compound | fraction unbound [1] | half-life [2] | half-life [3] | MIC50 [4] |
| --- | --- | --- | --- | --- |
| CN[C@H](CC(C)C)C(=O)N[C@H]1C(=O)N[C@@H](CC(N)=O)C(=O)N[C@H]2C(=O)N[C@H]3C(=O)N[C@H](C(=O)N[C@H](C(=O)O)c4cc(O)cc(O)c4-c4cc3ccc4O)[C@H](O[C@H]3C[C@](C)(N)[C@@H](O)[C@H](C)O3)c3ccc(c(Cl)c3)Oc3cc2cc(c3O[C@@H]2O[C@H](CO)[C@@H](O)[C@H](O)[C@H]2O[C@H]2C[C@](C)(NCc3ccc(-c4ccc(Cl)cc4)cc3)[C@@H](O)[C@H](C)O2)Oc2ccc(cc2Cl)[C@H]1O [ORITAVANCIN] | 0.1 | 195 h | – | – |
| CCCCCCCCCCNCCN[C@@]1(C)C[C@H](O[C@H]2[C@H](Oc3c4cc5cc3Oc3ccc(cc3Cl)[C@@H](O)[C@@H](NC(=O)[C@@H](CC(C)C)NC)C(=O)N[C@@H](CC(N)=O)C(=O)N[C@H]5C(=O)N[C@H]3C(=O)N[C@H](C(=O)N[C@H](C(=O)O)c5cc(O)c(CNCP(=O)(O)O)c(O)c5-c5cc3ccc5O)[C@H](O)c3ccc(c(Cl)c3)O4)O[C@H](CO)[C@@H](O)[C@@H]2O)O[C@@H](C)[C@H]1O [TELAVANCIN] | 0.07 | – | 7.5 h | – |
| CN[C@H](CC(C)C)C(=O)N[C@H]1C(=O)N[C@@H](CC(N)=O)C(=O)N[C@H]2C(=O)N[C@H]3C(=O)N[C@H](C(=O)N[C@H](C(=O)O)c4cc(O)cc(O)c4-c4cc3ccc4O)[C@H](O)c3ccc(c(Cl)c3)Oc3cc2cc(c3O[C@@H]2O[C@H](CO)[C@@H](O)[C@H](O)[C@H]2O[C@H]2C[C@](C)(N)[C@H](O)[C@H](C)O2)Oc2ccc(cc2Cl)[C@H]1O [VANCOMYCIN] | 0.9 | 6 h | – | 1 µg/mL (≈ 0.69 µM) |
